Literature values, collected in patent USRE50805E1, “Single-layer oral dose of neuro-attenuating ketamine” (ACADIA Pharmaceuticals Inc., priority 2013, dated 2026).
Counter-ions that a name gives are not always drawn.

Key:
[1] = after oral administration, background statement
[2] = not given; remark: listed apart in the source

Structure (SMILES)	elimination half-life [1] [h]	optimal efficacy plasma concentration (exceeding it leads to more pronounced side effects) [ng/mL]	blood concentration level above which side effects may become more pronounced (in vivo)	solubility in water [2]
NC1(c2ccccc2Cl)CCCCC1=O (racemic) [norketamine, (R,S)—2-(2-chlorophenyl)-2-(amino) cyclohexanone]	4	–	–	–
CNC1(c2ccccc2Cl)CCCCC1=O (racemic) [ketamine, (R,S)—2-(2-chlorophenyl)-2-(methylamino) cyclohexanone]	2 to 3	10 to 300	above 300 ng/L	–
CNC1(c2ccccc2Cl)CCCCC1=O (centres unmarked) [ketamine hydrochloride]	–	–	–	about 200 mg/ml
